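Exposure lasted 48 hours, with cells grown in 96-well plates and compounds tested at five concentrations. GI50 = concentration required for 50% inhibition of growth.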 The source made the active and inactive calls. Rule as the data show it: active = GI50 up to about 1.1 µM and inactive = higher.
How the values were obtained:
Assay in all cases: inhibition of tumour cell growth, NCI panel, 48 h
[1] = tested on: SNB-75
[2] = tested on: K562
[3] = tested on: SK-OV-3
[4] = tested on: OVCAR-5
[5] = tested on: HCT-116
[6] = tested on: U-251
[7] = tested on: A498
[8] = tested on: EKVX
[9] = tested on: SW-620
[10] = tested on: OVCAR-3
[11] = tested on: HT-29
[12] = tested on: DMS-114
[13] = tested on: UACC-62
[14] = tested on: NCI-H522
[15] = tested on: Malme-3M
[16] = tested on: HCC 2998
[17] = tested on: HCT-15
[18] = tested on: BT-549
[19] = tested on: MDA-MB-435
[20] = tested on: MDA-N

Compound | GI50 [1] | GI50 [2] | GI50 [3] | GI50 [4] | GI50 [5] | GI50 [6] | GI50 [7] | GI50 [8] | GI50 [9] | GI50 [10] | GI50 [11] | GI50 [12] | GI50 [13] | GI50 [14] | GI50 [15] | GI50 [16] | GI50 [17] [µM] | GI50 [18] | GI50 [19] | GI50 [20]
CC(=O)NC(CCCN(Cc1ccccc1)C(=O)NCCCl)C(=O)NCc1ccccc1 (stereo not given) | > 69.5 µM (inactive) | > 100 µM (inactive) | > 100 µM (inactive) | > 100 µM (inactive) | > 100 µM (inactive) | > 100 µM (inactive) | > 100 µM (inactive) | > 100 µM (inactive) | > 100 µM (inactive) | > 100 µM (inactive) | > 100 µM (inactive) | > 100 µM (inactive) | > 100 µM (inactive) | > 100 µM (inactive) | > 100 µM (inactive) | > 100 µM (inactive) | > 100 | – | – | –
Oc1cc2cc(-c3ccccc3)[nH]c2c2ccccc12 | 33 µM (inactive) | 26.7 µM (inactive) | > 77.8 µM (inactive) | > 100 µM (inactive) | 17.1 µM (inactive) | 32.1 µM (inactive) | > 100 µM (inactive) | > 48.9 µM (inactive) | 34.4 µM (inactive) | 16.3 µM (inactive) | 68.9 µM (inactive) | 13.6 µM (inactive) | 15.2 µM (inactive) | 15.3 µM (inactive) | 19.9 µM (inactive) | 49.5 µM (inactive) | 27.1 | – | – | –
Nc1ccc(C(=O)NN2C(=O)C(Cl)C2c2ccc([N+](=O)[O-])cc2)cc1 (stereo not given) | 10.2 µM (inactive) | 9.75 µM (inactive) | 14.1 µM (inactive) | 17.6 µM (inactive) | 1.63 µM (inactive) | 2.13 µM (inactive) | 20.8 µM (inactive) | 7.59 µM (inactive) | 11.1 µM (inactive) | 3.71 µM (inactive) | 8.87 µM (inactive) | 2.84 µM (inactive) | 8.59 µM (inactive) | 1.73 µM (inactive) | 12.1 µM (inactive) | 9.08 µM (inactive) | 8.05 | – | – | –
O=c1c2cc(Br)ccc2n(C2OC(CO)C(O)C(O)C2O)c(=S)n1-c1ccccc1 (stereo not given) | 68.1 µM (inactive) | > 100 µM (inactive) | – | > 100 µM (inactive) | > 100 µM (inactive) | > 100 µM (inactive) | > 100 µM (inactive) | > 100 µM (inactive) | > 100 µM (inactive) | > 100 µM (inactive) | > 100 µM (inactive) | > 100 µM (inactive) | – | > 100 µM (inactive) | > 100 µM (inactive) | > 100 µM (inactive) | > 100 | – | – | –
CC(C)(C)C1CCC2(CC1)CCN(CCCN1CCOCC1)CC2 | 24.8 µM (inactive) | 8.51 µM (inactive) | > 100 µM (inactive) | > 60 µM (inactive) | 27.6 µM (inactive) | > 35.2 µM (inactive) | 34.7 µM (inactive) | > 96.4 µM (inactive) | > 42.8 µM (inactive) | > 100 µM (inactive) | 6.5 µM (inactive) | 16.5 µM (inactive) | 8.91 µM (inactive) | > 51.1 µM (inactive) | 18.5 µM (inactive) | 16.9 µM (inactive) | 22.3 | > 100 µM (inactive) | 28.2 µM (inactive) | 28.8 µM (inactive)
Cc1c(C(=O)Nc2ccc(Cl)c(C(F)(F)F)c2)oc2cc(O)ccc2/c1=N\NC(N)=S | > 100 µM (inactive) | > 100 µM (inactive) | > 100 µM (inactive) | > 100 µM (inactive) | > 100 µM (inactive) | > 100 µM (inactive) | > 100 µM (inactive) | > 100 µM (inactive) | > 100 µM (inactive) | > 100 µM (inactive) | > 100 µM (inactive) | > 100 µM (inactive) | > 100 µM (inactive) | > 100 µM (inactive) | > 100 µM (inactive) | > 100 µM (inactive) | > 100 | – | – | –
CCC1c2cc3n(c(=O)c2COC1O)Cc1c-3nc2ccccc2c1Cl (stereo not given) | 20.5 µM (inactive) | 32.2 µM (inactive) | > 75 µM (inactive) | > 100 µM (inactive) | 20.1 µM (inactive) | 9.86 µM (inactive) | 52.6 µM (inactive) | 66.1 µM (inactive) | > 100 µM (inactive) | > 100 µM (inactive) | 70.1 µM (inactive) | 49.4 µM (inactive) | 6.95 µM (inactive) | 5.05 µM (inactive) | > 100 µM (inactive) | 44.7 µM (inactive) | > 94.2 | – | – | –
